Measurements taken from US10940139B2, “Compounds that interact with the Ras superfamily for the treatment of cancers, inflammatory diseases, rasopathies, and fibrotic disease” (Shy Therapeutics LLC, priority 2017, dated 2021).

Key:
Test in all cases: Ras GTP binding domain inhibition assay (labeled GTP)
KRas Q61H mutant = KRas Q61H mutant (Homo sapiens (Human), UniProt P01116, Q61H); settings: 20 μM compound; read-out: % Inhibition at 20 μM KRas Q61H
Summary of the method: (§1)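 Labelled-GTP binding: plate-captured His-KRas protein was pre-exposed to compound for 3 h at room temperature (single 20 μM point or dilution series, 1% DMSO, Tris pH 7.5/MgCl2/DTT buffer). Cy3- or Cy5-GTP was then added for 45 min. Washed wells were read for retained fluorescence to give inhibition or IC50.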

[1] = target: KRas G12C/Q61H double mutant (Homo sapiens (Human), UniProt P01116, G12C/Q61H); settings: 20 μM compound; read-out: % Inhibition at 20 μM KRas G12C Q61H
Sequence of KRas G12C/Q61H double mutant (P01116-2 other isoform, or with tags, fused parts or gaps G12C/Q61H): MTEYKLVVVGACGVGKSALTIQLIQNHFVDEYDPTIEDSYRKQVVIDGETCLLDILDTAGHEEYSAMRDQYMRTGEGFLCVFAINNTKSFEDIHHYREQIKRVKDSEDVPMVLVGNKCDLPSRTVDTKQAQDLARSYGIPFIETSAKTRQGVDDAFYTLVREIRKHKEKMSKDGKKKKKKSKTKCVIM
Summary of the method: as §1

[2] = target: KRas G12D/Q61H double mutant (Homo sapiens (Human), UniProt P01116, G12D/Q61H); settings: for inhibition at 20 µM: 20 μM compound, read-out: % Inhibition at 20 μM KRas G12D Q61H; for IC50: serial dilution, read-out: KRas G12D Q61H (classes E-H, IC50)
Sequence of KRas G12D/Q61H double mutant (P01116-2 other isoform, or with tags, fused parts or gaps G12D/Q61H): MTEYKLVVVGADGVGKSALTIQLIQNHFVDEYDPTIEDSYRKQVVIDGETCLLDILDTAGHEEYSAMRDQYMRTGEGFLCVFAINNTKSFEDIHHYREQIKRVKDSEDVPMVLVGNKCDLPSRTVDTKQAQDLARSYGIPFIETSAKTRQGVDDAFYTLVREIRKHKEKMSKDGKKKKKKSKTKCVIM
Summary of the method: as §1

Sequence of KRas Q61H mutant (P01116-2 other isoform, or with tags, fused parts or gaps Q61H): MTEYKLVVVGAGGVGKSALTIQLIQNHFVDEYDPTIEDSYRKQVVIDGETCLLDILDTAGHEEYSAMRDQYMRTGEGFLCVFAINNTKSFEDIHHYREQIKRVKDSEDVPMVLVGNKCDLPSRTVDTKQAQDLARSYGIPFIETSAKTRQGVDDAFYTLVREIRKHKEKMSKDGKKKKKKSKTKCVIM

Row | Compound | inhibition at 20 µM (KRas Q61H mutant) [%] | inhibition at 20 µM [1] [%] | inhibition at 20 µM [2] [%] | IC50 [2] [µM]
1 | Cc1ccccc1N1CCN(C(=O)c2csc3c(O)nc(-c4ccccn4)nc23)CC1 [drawing 2723] | 51 to 75 | 51 to 75 | 25 to 50 | 
2 | O=C(c1csc2c(O)nc(-c3ccccn3)nc12)N1CCN(Cc2cccc(O)c2)CC1 [drawing 2726] | 76 to 100 | 76 to 100 | 76 to 100 | 11 to 30
3 | O=C(c1csc2c(O)nc(-c3ccccn3)nc12)N1CCOC(c2cccc(F)c2)C1 (centres unmarked) [drawing 2732] | 1 to 25 | 1 to 25 | 25 to 50 | 
4 | O=C(c1csc2c(O)nc(-c3ccccn3)nc12)N1CCOC(c2nccs2)C1 (centres unmarked) [drawing 2734] | 51 to 75 | 51 to 75 | 25 to 50 | 5 to 10
5 | COc1ccc(CCN(C)C(=O)c2csc3nc(-c4ccccn4)nc(N4CCOCC4)c23)cn1 [drawing 2746] | 25 to 50 | 25 to 50 | 0 | 
6 | COc1cc(CCNC(=O)c2csc3nc(-c4ccccn4)nc(N4CCOCC4)c23)ccn1 [drawing 2747] | 25 to 50 | 25 to 50 | 1 to 25 | 
7 | O=C(NCCc1cncs1)c1csc2nc(-c3ccccn3)nc(N3CCOCC3)c12 [drawing 2749] | 25 to 50 | 25 to 50 | 1 to 25 | 
8 | O=C(c1csc2c(O)nc(-c3ccccn3)nc12)N1CCN(c2cccc(F)c2)CC1 [drawing 2753] | 76 to 100 | 51 to 75 | 25 to 50 | 
9 | N#Cc1ccc(N2CCN(C(=O)c3csc4c(O)nc(-c5ccccn5)nc34)CC2)cc1 [drawing 2756] | 51 to 75 | 51 to 75 | 0 | 
10 | COc1cc(N2CCN(C(=O)c3csc4c(O)nc(-c5ccccn5)nc34)CC2)cc(OC)c1OC [drawing 2758] | 25 to 50 | 1 to 25 | 0 | 

Continued, in another order:

Row | inhibition at 20 µM (KRas Q61H mutant) [%] | inhibition at 20 µM [1] [%] | inhibition at 20 µM [2] [%] | Compound | IC50 [2] [µM]
11 | 51 to 75 | 51 to 75 | 1 to 25 | COc1cccc(N2CCN(C(=O)c3csc4c(O)nc(-c5ccccn5)nc34)CC2)c1 [drawing 2713] | 
12 | 25 to 50 | 1 to 25 | 25 to 50 | COc1ccnc(-c2nc(O)c3c(Br)csc3n2)c1 [drawing 2742] | 
13 | 51 to 75 | 25 to 50 | 1 to 25 | O=C(NCCc1cccnc1)c1csc2nc(-c3ccccn3)nc(N3CCOCC3)c12 [drawing 2744] | 
14 | 51 to 75 | 25 to 50 | 25 to 50 | COc1ccc(CCNC(=O)c2csc3nc(-c4ccccn4)nc(N4CCOCC4)c23)cn1 [drawing 2745] | 
15 | 25 to 50 | 25 to 50 | 1 to 25 | COc1ncc(CCNC(=O)c2csc3nc(-c4ccccn4)nc(N4CCOCC4)c23)cn1 [drawing 2748] | 
16 | 1 to 25 | 1 to 25 | 1 to 25 | N#Cc1ccc(CCNC(=O)c2csc3nc(-c4ccccn4)nc(N4CCOCC4)c23)cc1 [drawing 2750] | 
17 | 51 to 75 | 51 to 75 | 1 to 25 | CC(C)(C(=O)Nc1ccnc(-c2ccccn2)n1)c1ccc(C#N)cc1 [drawing 2751] | 
18 | 1 to 25 | 1 to 25 | 0 | CC(C)(C(=O)Nc1nc(-c2ccccn2)nc2sccc12)c1ccc(C#N)cc1 [drawing 2752] | 
19 | 25 to 50 | 25 to 50 | 0 | O=C(c1csc2c(O)nc(-c3ccccn3)nc12)N1CCN(c2ccc(F)cc2)CC1 [drawing 2754] | 
20 | 25 to 50 | 25 to 50 | 1 to 25 | N#Cc1cccc(N2CCN(C(=O)c3csc4c(O)nc(-c5ccccn5)nc34)CC2)c1 [drawing 2755] | 
21 | 1 to 25 | 1 to 25 | 0 | COc1cc(OC)cc(N2CCN(C(=O)c3csc4c(O)nc(-c5ccccn5)nc34)CC2)c1 [drawing 2757] | 
